The results in this text go back to publication PMC5218480 (PLoS ONE, 2017).

For this test, the system named is MV-4-11 cells. Put plainly: Gene expression microarray analysis (Affymetrix PrimeView) and GSEA. Also noted: RFU PODN (11730768_x_at) / Fold change /veh PODN (11730768_x_at) / RFU LINC00158 (11744669_a_at) / Fold change /veh LINC00158 (11744669_a_at) / RFU DUSP10 (11751237_a_at) / Fold change /veh DUSP10 (11751237_a_at) / RFU ID3 (11757404_x_at) / Fold change /veh ID3 (11757404_x_at) / RFU PLEKHG5 (11737974_s_at) / Fold change /veh PLEKHG5 (11737974_s_at) / RFU LRRC4B (11730491_at) / Fold change /veh LRRC4B (11730491_at) / RFU GIMAP4 (11747438_a_at) / Fold change /veh GIMAP4 (11747438_a_at) / RFU KRT8 (11758183_x_at) / Fold change /veh KRT8 (11758183_x_at) / RFU CNN1 (11734310_a_at) / Fold change /veh CNN1 (11734310_a_at) / RFU VPS37D (11726825_at) / Fold change /veh VPS37D (11726825_at) / RFU C10orf10 (11716522_x_at) / Fold change /veh C10orf10 (11716522_x_at) / RFU KIR2DL2 /// KIR2DL4 /// KIR2DL5A /// KIR2DL5B /// KIR2DS1 /// KIR2DS2 /// KIR2DS3 /// KIR2DS4 /// KIR3DL3 /// KIR3DL3 /// KIR3DS1 (11738374_at) / Fold change /veh KIR2DL2 /// KIR2DL4 /// KIR2DL5A /// KIR2DL5B /// KIR2DS1 /// KIR2DS2 /// KIR2DS3 /// KIR2DS4 /// KIR3DL3 /// KIR3DL3 /// KIR3DS1 (11738374_at) / RFU C1QL1 (11718748_at) / Fold change /veh C1QL1 (11718748_at) / RFU TMPRSS4 (11747572_a_at) / Fold change /veh TMPRSS4 (11747572_a_at) / RFU HAMP (11756126_x_at) / Fold change /veh HAMP (11756126_x_at) / RFU RNFT2 (11725882_a_at) / Fold change /veh RNFT2 (11725882_a_at) / RFU NR4A2 (11747474_a_at) / Fold change /veh NR4A2 (11747474_a_at) / RFU ABCC12 (11746883_a_at) / Fold change /veh ABCC12 (11746883_a_at) / RFU TMEM136 (11760407_x_at) / Fold change /veh TMEM136 (11760407_x_at) / RFU CLDN22 /// WWC2 (11732394_at) / Fold change /veh CLDN22 /// WWC2 (11732394_at) / RFU HLA-DPB1 (11760878_x_at) / Fold change /veh HLA-DPB1 (11760878_x_at) / RFU SPINT1 (11716480_a_at) / Fold change /veh SPINT1 (11716480_a_at) / RFU GAP43 (11754022_s_at) / Fold change /veh GAP43 (11754022_s_at) / RFU A4GNT (11735810_at) / Fold change /veh A4GNT (11735810_at) / RFU PRB3 (11715151_x_at) / Fold change /veh PRB3 (11715151_x_at) / RFU TUBB4B (11761932_at) / Fold change /veh TUBB4B (11761932_at) / RFU CAPN14 (11732068_a_at) / Fold change /veh CAPN14 (11732068_a_at) / RFU TMCC2 (11721928_a_at) / Fold change /veh TMCC2 (11721928_a_at) / RFU IRGQ (11745062_a_at) / Fold change /veh IRGQ (11745062_a_at) / RFU FAM174B (11720279_a_at) / Fold change /veh FAM174B (11720279_a_at) / RFU TMPRSS4 (11748680_a_at) / Fold change /veh TMPRSS4 (11748680_a_at) / RFU FAM212B (11763350_a_at) / Fold change /veh FAM212B (11763350_a_at) / RFU PLEKHG5 (11743358_a_at) / Fold change /veh PLEKHG5 (11743358_a_at) / RFU ZSCAN30 (11745921_a_at) / Fold change /veh ZSCAN30 (11745921_a_at) / RFU CMKLR1 (11741424_a_at) / Fold change /veh CMKLR1 (11741424_a_at) / RFU LOC101060620 /// MAPK8IP1 (11723275_at) / Fold change /veh LOC101060620 /// MAPK8IP1 (11723275_at) / RFU SPTSSB (11747773_x_at) / Fold change /veh SPTSSB (11747773_x_at) / RFU PRSS12 (11739890_at) / Fold change /veh PRSS12 (11739890_at) / RFU BIN1 (11741810_x_at) / Fold change /veh BIN1 (11741810_x_at) / RFU WNT11 (11732464_a_at) / Fold change /veh WNT11 (11732464_a_at) / RFU C10orf10 (11716521_a_at) / Fold change /veh C10orf10 (11716521_a_at) / RFU C5orf56 (11738089_at) / Fold change /veh C5orf56 (11738089_at) / RFU CYB561 (11721691_x_at) / Fold change /veh CYB561 (11721691_x_at) / RFU ANKRD19P (11752326_a_at) / Fold change /veh ANKRD19P (11752326_a_at) / RFU OR2T12 /// OR2T33 /// OR2T8 (11738714_s_at) / Fold change /veh OR2T12 /// OR2T33 /// OR2T8 (11738714_s_at) / RFU VCAN (11748164_a_at) / Fold change /veh VCAN (11748164_a_at) / RFU JSRP1 (11732532_at) / Fold change /veh JSRP1 (11732532_at) / RFU KRTAP10-11 (11738290_x_at) / Fold change /veh KRTAP10-11 (11738290_x_at) / RFU MYO3A (11730013_a_at) / Fold change /veh MYO3A (11730013_a_at) / RFU EBF3 (11725865_a_at) / Fold change /veh EBF3 (11725865_a_at) / RFU CAMK2N1 (11719241_x_at) / Fold change /veh CAMK2N1 (11719241_x_at) / RFU C5orf56 (11738088_a_at) / Fold change /veh C5orf56 (11738088_a_at) / RFU OLFML3 (11715873_a_at) / Fold change /veh OLFML3 (11715873_a_at) / RFU LOC100653217 /// NTM (11731650_a_at) / Fold change /veh LOC100653217 /// NTM (11731650_a_at) / RFU MAPK11 (11762145_a_at) / Fold change /veh MAPK11 (11762145_a_at) / RFU FIZ1 (11724087_x_at) / Fold change /veh FIZ1 (11724087_x_at) / RFU OASL (11726364_x_at) / Fold change /veh OASL (11726364_x_at) / RFU SOX15 (11748057_x_at) / Fold change /veh SOX15 (11748057_x_at) / RFU CD79A (11719716_a_at) / Fold change /veh CD79A (11719716_a_at) / RFU HIST1H1D (11736915_at) / Fold change /veh HIST1H1D (11736915_at) / RFU CASKIN2 (11723855_a_at) / Fold change /veh CASKIN2 (11723855_a_at) / RFU LOC730098 (11760151_x_at) / Fold change /veh LOC730098 (11760151_x_at) / RFU OR4N2 (11742367_at) / Fold change /veh OR4N2 (11742367_at) / RFU PRRT2 (11749266_a_at) / Fold change /veh PRRT2 (11749266_a_at) / RFU SNX32 (11753110_a_at) / Fold change /veh SNX32 (11753110_a_at) / RFU CDHR5 (11726645_a_at) / Fold change /veh CDHR5 (11726645_a_at) / RFU RCAN1 (11760418_a_at) / Fold change /veh RCAN1 (11760418_a_at) / RFU FAM167A (11723789_a_at) / Fold change /veh FAM167A (11723789_a_at) / RFU FAM26E (11764081_at) / Fold change /veh FAM26E (11764081_at) / RFU ISYNA1 (11749810_s_at) / Fold change /veh ISYNA1 (11749810_s_at) / RFU ACY1 (11761880_at) / Fold change /veh ACY1 (11761880_at) / RFU 11764098_at / Fold change /veh 11764098_at / RFU SAMD14 (11745864_x_at) / Fold change /veh SAMD14 (11745864_x_at) / RFU NPB (11741838_a_at) / Fold change /veh NPB (11741838_a_at) / RFU TMPRSS6 (11731388_a_at) / Fold change /veh TMPRSS6 (11731388_a_at) / RFU KRTAP10-2 (11738614_at) / Fold change /veh KRTAP10-2 (11738614_at) / RFU ARHGAP8 /// PRR5-ARHGAP8 (11727945_x_at) / Fold change /veh ARHGAP8 /// PRR5-ARHGAP8 (11727945_x_at) / RFU KRTAP5-7 /// NADSYN1 (11734609_at) / Fold change /veh KRTAP5-7 /// NADSYN1 (11734609_at) / RFU RASL12 (11751679_a_at) / Fold change /veh RASL12 (11751679_a_at) / RFU CDKN2B (11736163_a_at) / Fold change /veh CDKN2B (11736163_a_at) / RFU PRF1 (11729649_at) / Fold change /veh PRF1 (11729649_at) / RFU, ZNF638 /// ZNF638-IT1 / Fold change vs veh, ZNF638 /// ZNF638-IT1 / RFU, PANK3 / Fold change vs veh, PANK3 / RFU, SH3YL1 / Fold change vs veh, SH3YL1 / RFU, ZEB2 / Fold change vs veh, ZEB2 / RFU, NRIP1 / Fold change vs veh, NRIP1 / RFU, PTTG1IP / Fold change vs veh, PTTG1IP / RFU, CAPN2 / Fold change vs veh, CAPN2 / RFU, MED14 / Fold change vs veh, MED14 / RFU, SNORA58 / Fold change vs veh, SNORA58 / RFU, C1orf63 / Fold change vs veh, C1orf63 / RFU, LRRFIP1 / Fold change vs veh, LRRFIP1 / RFU, NDUFAF7 / Fold change vs veh, NDUFAF7 / RFU, SLC12A2 / Fold change vs veh, SLC12A2 / RFU, IBTK / Fold change vs veh, IBTK / RFU, ESF1 / Fold change vs veh, ESF1 / Fold change vs veh, TMEM50B / RFU, TAOK1 / Fold change vs veh, TAOK1 / RFU, ACBD3 / Fold change vs veh, ACBD3 / RFU, TMA16 / Fold change vs veh, TMA16 / RFU, RWDD3 / Fold change vs veh, RWDD3 / RFU, BCAT1 / Fold change vs veh, BCAT1 / RFU, EDEM3 / Fold change vs veh, EDEM3 / RFU, TMEM33 / Fold change vs veh, TMEM33 / RFU, WDR75 / Fold change vs veh, WDR75 / RFU, AHCTF1 / Fold change vs veh, AHCTF1 / RFU, TFRC / Fold change vs veh, TFRC / RFU, ZDHHC17 / Fold change vs veh, ZDHHC17 / RFU, NOM1 / Fold change vs veh, NOM1 / RFU, ARL8B / Fold change vs veh, ARL8B / RFU, ZBTB11 / Fold change vs veh, ZBTB11 / RFU, TAMM41 / Fold change vs veh, TAMM41 / RFU, KIAA1704 /// LOC100996395 / Fold change vs veh, KIAA1704 /// LOC100996395 / RFU, ING1 / Fold change vs veh, ING1 / RFU, TRMT61B / Fold change vs veh, TRMT61B / RFU, FUBP3 / Fold change vs veh, FUBP3 / RFU, TP53 / Fold change vs veh, TP53 / RFU, TNKS2 / Fold change vs veh, TNKS2 / RFU, ZFP14 / Fold change vs veh, ZFP14 / RFU, ACTR2 / Fold change vs veh, ACTR2 / RFU, PPP3R1 / Fold change vs veh, PPP3R1 / RFU, PIK3R1 / Fold change vs veh, PIK3R1 / RFU, HNRNPA1 / Fold change vs veh, HNRNPA1 / RFU, RNF170 / Fold change vs veh, RNF170 / RFU, ZNF28 / Fold change vs veh, ZNF28 / RFU, RNGTT / Fold change vs veh, RNGTT / RFU, OGT / Fold change vs veh, OGT / RFU, BRD1 / Fold change vs veh, BRD1 / RFU, MARS / Fold change vs veh, MARS / RFU, ZNF655 / Fold change vs veh, ZNF655 / RFU, FAHD1 / Fold change vs veh, FAHD1 / RFU, BDP1 / Fold change vs veh, BDP1 / RFU, LRRCC1 / Fold change vs veh, LRRCC1 / RFU, ARID1A / Fold change vs veh, ARID1A / RFU, ZNF146 / Fold change vs veh, ZNF146 / RFU, ZNF330 / Fold change vs veh, ZNF330 / RFU, GPN3 / Fold change vs veh, GPN3 / RFU, C9orf123 / Fold change vs veh, C9orf123 / RFU, N4BP2L2 / Fold change vs veh, N4BP2L2 / RFU, ARFIP1 / Fold change vs veh, ARFIP1 / RFU, FAM179B / Fold change vs veh, FAM179B / RFU, BCL10 / Fold change vs veh, BCL10 / RFU, UHRF1BP1L / Fold change vs veh, UHRF1BP1L / RFU, BET1 / Fold change vs veh, BET1 / RFU, CNOT2 / Fold change vs veh, CNOT2 / RFU, ZNF268 / Fold change vs veh, ZNF268 / Fold change vs veh, ZNF507 / RFU, DGCR2 / Fold change vs veh, DGCR2 / RFU, WDSUB1 / Fold change vs veh, WDSUB1 / Fold change vs veh, HSP90B1 /// MIR3652 / RFU, ADSS / Fold change vs veh, ADSS / RFU, GK / Fold change vs veh, GK / RFU, ZNF148 / Fold change vs veh, ZNF148 / RFU, TAF9 / Fold change vs veh, TAF9 / RFU, SLC1A5 / Fold change vs veh, SLC1A5 / RFU, SLMO2 / Fold change vs veh, SLMO2 / RFU, ABCC4 / Fold change vs veh, ABCC4 / RFU, LOC101060439 /// RAP1B / Fold change vs veh, LOC101060439 /// RAP1B / RFU, RFX7 / Fold change vs veh, RFX7 / RFU, GTPBP10 / Fold change vs veh, GTPBP10 / RFU, CNEP1R1 / Fold change vs veh, CNEP1R1 / RFU, BIVM-ERCC5 /// ERCC5 / Fold change vs veh, BIVM-ERCC5 /// ERCC5 / RFU, ILF3 / Fold change vs veh, ILF3 / RFU 11762660_at / Fold change /veh 11762660_at / RFU VCAN (11757783_s_at) / Fold change /veh VCAN (11757783_s_at) / RFU DDX43 (11728927_at) / Fold change /veh DDX43 (11728927_at) / RFU KRT8 (11758188_x_at) / Fold change /veh KRT8 (11758188_x_at) / RFU NKD1 (11759106_at) / Fold change /veh NKD1 (11759106_at) / RFU SRD5A1 (11742802_a_at) / Fold change /veh SRD5A1 (11742802_a_at) / RFU TPSAB1 /// TPSB2 (11721975_s_at) / Fold change /veh TPSAB1 /// TPSB2 (11721975_s_at) / RFU GSTM3 (11746129_a_at) / Fold change /veh GSTM3 (11746129_a_at) / RFU IL23R (11737362_x_at) / Fold change /veh IL23R (11737362_x_at) / RFU TMEM51 (11727254_a_at) / Fold change /veh TMEM51 (11727254_a_at) / RFU PIWIL2 (11732686_x_at) / Fold change /veh PIWIL2 (11732686_x_at) / RFU ORM1 (11744905_x_at) / Fold change /veh ORM1 (11744905_x_at) / RFU CCDC152 (11743942_at) / Fold change /veh CCDC152 (11743942_at) / RFU ECM1 (11717891_a_at) / Fold change /veh ECM1 (11717891_a_at) / RFU IL23R (11748794_a_at) / Fold change /veh IL23R (11748794_a_at) / RFU TNFAIP8L3 (11732012_x_at) / Fold change /veh TNFAIP8L3 (11732012_x_at) / RFU MBOAT4 (11741988_at) / Fold change /veh MBOAT4 (11741988_at) / RFU 11764193_at / Fold change /veh 11764193_at / RFU TMEM53 (11763286_at) / Fold change /veh TMEM53 (11763286_at) / RFU MAGEB2 (11727129_at) / Fold change /veh MAGEB2 (11727129_at) / RFU TMEM200A (11744735_a_at) / Fold change /veh TMEM200A (11744735_a_at) / RFU CCDC152 (11751479_a_at) / Fold change /veh CCDC152 (11751479_a_at) / RFU FAM211A (11726209_a_at) / Fold change /veh FAM211A (11726209_a_at) / RFU RGS16 (11746705_a_at) / Fold change /veh RGS16 (11746705_a_at) / RFU VCAN (11755009_s_at) / Fold change /veh VCAN (11755009_s_at) / RFU RHOB (11743442_s_at) / Fold change /veh RHOB (11743442_s_at) / RFU RGS16 (11720943_a_at) / Fold change /veh RGS16 (11720943_a_at) / RFU RGS16 (11720944_at) / Fold change /veh RGS16 (11720944_at) / RFU, VPS4B / Fold change vs veh, VPS4B / RFU, CREB1 / Fold change vs veh, CREB1 / RFU, DNAJC13 / Fold change vs veh, DNAJC13 / RFU, GNAQ / Fold change vs veh, GNAQ / RFU, CDK5R1 / Fold change vs veh, CDK5R1 / RFU, ZRANB3 / Fold change vs veh, ZRANB3 / RFU, CUL4A / Fold change vs veh, CUL4A / RFU, CCNY / Fold change vs veh, CCNY / RFU, UFL1 / Fold change vs veh, UFL1 / RFU, COG3 / Fold change vs veh, COG3 / RFU, DIAPH2 / Fold change vs veh, DIAPH2 / RFU, SKA2 / Fold change vs veh, SKA2 / RFU, AFF3 / Fold change vs veh, AFF3 / RFU, LMF1 / Fold change vs veh, LMF1 / RFU, IPO11 / Fold change vs veh, IPO11 / RFU, DFFB / Fold change vs veh, DFFB / RFU, FOXP1 / Fold change vs veh, FOXP1 / RFU, CARD8 / Fold change vs veh, CARD8 / RFU, STRN3 / Fold change vs veh, STRN3 / RFU, ADK / Fold change vs veh, ADK / RFU, RASSF2 / Fold change vs veh, RASSF2 / RFU, WIPF1 / Fold change vs veh, WIPF1 / RFU, LARP1B / Fold change vs veh, LARP1B / RFU, RASA1 / Fold change vs veh, RASA1 / RFU, RB1 / Fold change vs veh, RB1 / RFU, PPFIA1 / Fold change vs veh, PPFIA1 / RFU, MAT2A / Fold change vs veh, MAT2A / RFU, CCT5 / Fold change vs veh, CCT5 / RFU, WDR92 / Fold change vs veh, WDR92 / RFU, CUX1 / Fold change vs veh, CUX1 / RFU, TTC7A / Fold change vs veh, TTC7A / RFU, TMEM135 / Fold change vs veh, TMEM135 / RFU, DEPTOR / Fold change vs veh, DEPTOR / RFU, CPM / Fold change vs veh, CPM / RFU, DNAJB6 / Fold change vs veh, DNAJB6 / RFU, CACNA2D3 / Fold change vs veh, CACNA2D3 / RFU, DTX4 / Fold change vs veh, DTX4 / RFU, TFCP2 / Fold change vs veh, TFCP2 / RFU, GMCL1 /// GMCL1P1 / Fold change vs veh, GMCL1 /// GMCL1P1 / RFU, AEBP2 / Fold change vs veh, AEBP2 / RFU, SNHG1 /// SNORD22 /// SNORD25 /// SNORD26 /// SNORD27 /// SNORD28 /// SNORD29 /// SNORD31 / Fold change vs veh, SNHG1 /// SNORD22 /// SNORD25 /// SNORD26 /// SNORD27 /// SNORD28 /// SNORD29 /// SNORD31 / Fold change (Aza/veh), C12orf56 (ProbeSet 11735607_a_at) / Fold change (ACY-1035/veh), C12orf56 (ProbeSet 11735607_a_at) / Fold change (Aza/veh), FGFR1OP (ProbeSet 11751329_s_at) / Fold change (ACY-1035/veh), FGFR1OP (ProbeSet 11751329_s_at) / Fold change (Aza/veh), VPS36 (ProbeSet 11739960_a_at) / Fold change (ACY-1035/veh), VPS36 (ProbeSet 11739960_a_at) / RFU SYPL1 (11715823_x_at) / Fold change /veh SYPL1 (11715823_x_at) / RFU IGFBP7 (11715501_s_at) / Fold change /veh IGFBP7 (11715501_s_at) / RFU REEP3 (11722064_at) / Fold change /veh REEP3 (11722064_at) / RFU IGLL1 (11728026_x_at) / Fold change /veh IGLL1 (11728026_x_at): dose or concentration left out as unconfirmed. The note with it: MV-4-11 cells, 48 hours. The test is classed as cell-based, human.

`Nc1ccc(-c2cccs2)cc1NC(=O)c1ccc2c(c1)cc(C1CC1)n2CCN1CCOCC1` [ACY-1035]: the “Fold change /veh GIMAP4 (11747438_a_at)” value turned out to be 1.02.
